Experiments:
[1] = test system: ovariectomated rats; test: Oral estrogenic effects: weights of adrenal glands in ovariectomated rats; assay type: in vivo, rat; conditions: 10 μg/animal/day p.o. d1-d7
From the text: (§1) The laboratory animals, adult female rats (breeder: HSD/WIN:WU) were ovariectomated on day 14. Treatment started two weeks later by a single oral application per day of the respective test substance. The dosages given for esters refer to the steroid portion of the substances. The tests were made in three groups (A, B, C) at various points in time. This is why there is a deviation in control group values. The tests of series A, B, and C can therefore be compared among each other if the values for the respective control groups are taken into account.
(§2) The procedure of allocating animals to groups was randomized. The experiment was carried out as a block test. The animals were weighed at the beginning and at the end of the experiment.
(§3) The start of treatment was defined as day 1 (=d1), treatment was finished on day 7 (=d7); the animals were killed on day 8, various organs (uteri, adrenal glands, liver) were removed, weighed and deep-frozen (−196° C.) for further examination.

[2] = test system: ovariectomated rats; test: Oral estrogenic effects: uterus weights in ovariectomated rats; assay type: in vivo, rat; conditions: 10 μg/animal/day p.o. d1-d7
From the text: as §1, §2, §3

| SMILES | Weights of adrenal glands (mean value) ([1]; Experiment B) [mg] | Uterus weights (mean value) ([2]; Experiment B) [mg] | Weights of adrenal glands (mean value) ([1]; Experiment C) [mg] | Uterus weights (mean value) ([2]; Experiment C) [mg] |
| --- | --- | --- | --- | --- |
| C[C@]12CC[C@@H]3c4ccc(O)cc4CC[C@H]3[C@@H]1CCC2=O [Example E1, estrone] | 49.8 | 170.63 |  |  |
| C[C@]12CC[C@@H]3c4ccc(O)cc4CC[C@H]3[C@@H]1C[C@@H](O)[C@@H]2O [Example E3, estratriol] |  |  | 52.2 | 301.94 |
| C#CC1(O)CCC2C3CCc4cc(OS(=O)(=O)N5CCCC5)ccc4C3CCC21C (stereo not drawn) [J 272, 17β-Hydroxy-19-nor-17α-pregna-1,3,5(10)-trien-20-in-3-yl N,N-pyrrolidinosulfonate] | 57.5 | 620.7 |  |  |
| C#CC1(O)CCC2C3CCc4cc(OS(=O)(=O)N(C)C)ccc4C3CCC21C (stereo not drawn) [J 665, 17β-Hydroxy-19-nor-17α-pregna-1,3,5(10)-trien-20-in-3-yl N,N-dimethyl-sulfamate] | 58.0 | 639.48 |  |  |
| CCN(CC)S(=O)(=O)Oc1ccc2c(c1)CC[C@@H]1[C@@H]2CC[C@]2(C)C(=O)CC[C@@H]12 [J 804, Estra-1,3,5(10)-trien-17-on-3-yl N,N-diethyl-sulfamate] | 53.9 | 166.0 |  |  |
| CN(C)S(=O)(=O)Oc1ccc2c(c1)CC[C@@H]1[C@@H]2CC[C@]2(C)[C@@H](O)C[C@@H]3C[C@]312 [J 982, 17β-Hydroxy-14α,15α-methylen-estra-1,3,5(10)-trien-3-yl N,N-dimethyl-sulfamate] | 55.3 | 193.4 |  |  |
| CCN(CC)S(=O)(=O)Oc1ccc2c(c1)CC[C@@H]1[C@@H]2CC[C@]2(C)[C@@H](O)C[C@@H]3C[C@]312 [J 983, 17β-Hydroxy-14α,15α-methylen-estra-1,3,5(10)-trien-3-yl N,N-diethyl-sulfamate] | 53.9 | 348.6 |  |  |
